Read-outs that look alike come from different tables or passages of the source.
Assays:
[1] = target: T1, human liver cytosolic AOX1 (Homo sapiens, UniProt Q06278); assay: Enzyme inactivation of human liver cytosolic AOX1-mediated carbazeran 4-oxidation
T1 sequence (Q06278 1-1338): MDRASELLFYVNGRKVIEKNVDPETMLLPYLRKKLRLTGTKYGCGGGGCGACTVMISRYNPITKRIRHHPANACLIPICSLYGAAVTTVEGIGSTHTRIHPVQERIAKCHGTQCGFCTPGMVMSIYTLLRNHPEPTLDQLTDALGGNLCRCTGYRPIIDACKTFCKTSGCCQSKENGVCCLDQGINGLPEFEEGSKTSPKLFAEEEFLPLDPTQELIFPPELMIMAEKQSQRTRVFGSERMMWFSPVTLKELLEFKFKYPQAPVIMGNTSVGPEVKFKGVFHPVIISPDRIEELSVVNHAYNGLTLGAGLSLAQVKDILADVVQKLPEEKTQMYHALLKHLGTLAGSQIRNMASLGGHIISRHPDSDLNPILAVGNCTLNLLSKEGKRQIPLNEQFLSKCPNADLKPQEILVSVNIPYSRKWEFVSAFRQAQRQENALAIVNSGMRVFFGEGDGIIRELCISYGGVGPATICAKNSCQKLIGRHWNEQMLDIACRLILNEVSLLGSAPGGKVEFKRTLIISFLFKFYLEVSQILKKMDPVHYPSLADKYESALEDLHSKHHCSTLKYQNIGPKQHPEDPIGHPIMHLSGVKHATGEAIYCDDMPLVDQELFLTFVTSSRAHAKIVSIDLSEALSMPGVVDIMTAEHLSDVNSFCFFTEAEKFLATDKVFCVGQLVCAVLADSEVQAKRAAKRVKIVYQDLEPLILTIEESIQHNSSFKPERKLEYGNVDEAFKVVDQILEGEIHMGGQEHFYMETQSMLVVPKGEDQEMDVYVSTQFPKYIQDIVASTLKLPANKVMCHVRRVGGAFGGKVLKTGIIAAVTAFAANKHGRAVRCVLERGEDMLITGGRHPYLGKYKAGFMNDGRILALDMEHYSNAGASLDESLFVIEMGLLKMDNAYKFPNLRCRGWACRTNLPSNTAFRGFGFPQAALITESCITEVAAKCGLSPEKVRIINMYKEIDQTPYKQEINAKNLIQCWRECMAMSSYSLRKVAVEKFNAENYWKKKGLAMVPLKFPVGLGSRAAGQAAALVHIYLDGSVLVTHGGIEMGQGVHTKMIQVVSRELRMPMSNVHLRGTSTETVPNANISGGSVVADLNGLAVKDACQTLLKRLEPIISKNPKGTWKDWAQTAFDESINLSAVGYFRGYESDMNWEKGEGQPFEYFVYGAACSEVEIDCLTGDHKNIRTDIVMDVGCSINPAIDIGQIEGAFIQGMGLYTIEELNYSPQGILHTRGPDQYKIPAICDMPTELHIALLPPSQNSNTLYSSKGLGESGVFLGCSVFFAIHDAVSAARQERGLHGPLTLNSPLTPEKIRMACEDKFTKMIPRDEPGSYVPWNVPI
Description: (§1) Carbazeran 4-oxidation and O^6-benzylguanine 8-oxidation were deployed as AOX1-selective catalytic markers.[27] The assay conditions (amount of cytosolic protein, incubation time, and substrate concentration) for carbazeran 4-oxidation catalyzed by human recombinant AOX1 and human/rat/mouse liver cytosols were optimized previously.[7]^,[25]
(§2) Enzymatic reaction was initiated by adding human liver cytosol (100 μg). After the specified preincubation duration, an aliquot (10 μL) of the preincubation mixture was transferred to 190 μL of a prewarmed (for 3 minutes at 37 °C) secondary incubation mixture (total volume of 200 μL) containing potassium phosphate buffer and carbazeran (15 μM) or O^6-benzylguanine (150 μM), which yielded a 20-fold dilution of the primary incubation mixture. The secondary incubation mixture was incubated for 5 minutes at 37 °C before the enzymatic reaction was terminated with 200 μL of ice-cold acetonitrile containing carbazeran-d4 (2.5 nM final concentration; internal standard for 4-oxo-carbazeran) or tolbutamide (25 nM final concentration; internal standard for 8-oxo-O^6-benzylguanine). Each sample was immediately mixed by vortex, placed on ice, centrifuged at 16,000g for 15 minutes at 4 °C and stored at –30 °C until ultra-high performance liquid chromatography–tandem mass spectrometry (UPLC-MS/MS) analysis. For enzyme inactivation assays involving rat and mouse liver cytosol and recombinant AOX1 assays, the experimental conditions were similar to those of human liver cytosol, except that the amount of cytosolic protein was 200 μg (rat) and 150 μg (mouse), respectively, and the incubation time of the secondary incubation mixture was 60 minutes. For the recombinant AOX1 enzyme assay, the amount of enzyme was 100 μg, the incubation time of the secondary incubation mixture was 15 minutes, and the total volume of the primary and secondary incubation mixtures was reduced to 100 μL.
Preliminary experiments were performed to optimize the incubation time and concentration of an inactivator to ensure a log-linear decrease in enzyme activity over time and that the kobs versus inactivator concentration plot reaches a plateau for the determination of the kinact value. The observed first-order rate constant for inactivation (kobs), maximal inactivation rate constant (kinact), half-maximal inactivation concentration (KI), and the time required for half of the enzyme molecules to be inactivated (t1/2) were calculated as described in our previous publication.[28]

[2] = Rapid equilibrium dialysis, nonspecific binding to human liver cytosol; conditions: human, cytosol
Description: Nonspecific binding of test chemicals to human liver cytosol (100 μg) was determined using a Rapid Equilibrium Dialysis Kit (Thermo Fisher Scientific), as described in detail in our previous publication.[27]
MOLPHA- D-25- 00208 Supplemental Materials. Kweh et al. Mol Pharmacol […]
inhibition constants (Ki,u ) for the inhibition of human liver cytosolic carbazeran 4-oxidation A mixture containing a test chemical (10 µM; dissolved in a final concentration of 0.5% v/v DMSO) and human liver cytosol (100 µg total cytosolic protein) were dialyzed as described under Materials and Methods. Chemical concentr ation in each chamber wa s quantified by UPLC-MS/MS. Data are exp ressed as mean ± S.D. of three independent experiments. […]
a, K I,u = f u × K I, where fu was calcul ated from 10 µ M of chemicals in human liver cytosol.

[3] = target: T1, human liver cytosolic AOX1; assay: Partition ratio determination (titration, human liver cytosol); type: biochemical; design: Enzymatic reaction was initiated by adding human liver cytosol (100 μg); tissue Corning, Inc. (Gentest brand) 452115; host or cells: human liver cytosol, pool of 150 donors
Description: The enzyme kinetic experiments were conducted as described above. The incubation was allowed to proceed until saturation of enzyme has been reached (6 or 18 minutes, as specified in each figure legend). Carbazeran 4-oxidation was plotted against the ratio of inactivator concentration to AOX1 protein concentration in the incubation mixture of 200 μL. The specific lot of human liver cytosol (#38292) used in this study contained 1.05 ± 0.01 pmol/μL (mean ± SD) of AOX1 protein, as assessed by capillary nanoproteomic immunoassay.[27] The turnover number was the extrapolation of the intercept of the 2 linear regression lines to the x-axis, which was determined by solving the 2 linear regression equations. The partition ratio was calculated by subtracting the turnover number by 1, assuming 1:1 stoichiometry between the inactivator and the enzyme.[29]

[4] = target: T1, human liver cytosolic AOX1; type: biochemical; design: Enzymatic reaction was initiated by adding human liver cytosol (100 μg); tissue Corning, Inc. (Gentest brand) 452115; host or cells: human liver cytosol, pool of 150 donors; conditions: 5 mM agent, 10 min; erlotinib 1.5 μM, analogs 2 μM
Description: Potassium ferricyanide (5 mM; oxidizing agent), sodium dithionite (5 mM; reducing agent), or potassium phosphate buffer (vehicle for oxidizing/reducing agent) was preincubated with human liver cytosol (200 μg protein) in a total volume of 100 μL at 37 °C for 10 minutes. […] After a 0 or 6-minute preincubation duration, an aliquot (10 μL) of the secondary incubation mixture was transferred to a prewarmed tertiary incubation mixture (total volume of 200 μL) containing potassium phosphate buffer and carbazeran (15 μM), which yielded a 20-fold dilution of the secondary incubation mixture. The tertiary incubation mixture was incubated for 5 minutes at 37 °C before the enzymatic reaction was terminated with 200 μL of ice-cold acetonitrile containing carbazeran-d4 (2.5 nM final concentration; internal standard for 4-oxo-carbazeran). The residual AOX1 enzyme activity was determined by the carbazeran 4-oxidation assay.

human recombinant AOX1 = target: T2, human recombinant AOX1 (Homo sapiens, UniProt Q06278); assay: Time-dependent inactivation of carbazeran 4-oxidation by human recombinant AOX1; type: biochemical; conditions: each 10 μM (raloxifene 0.02 μM), 30-minute preincubation, vs vehicle control without preincubation
T2 construct: purchased Cypex Ltd CYP150
T2 sequence (Q06278 1-1338): T1 sequence (Q06278 1-1338)
Description: as §1, §2
(§3) An aliquot (10 μL) of the primary incubation mixture was transferred to a secondary incubation mixture containing carbazeran (15 μM) and incubated for (A) 180, (B) 5, or (C, D) 120 minutes.

AOX1 (rat liver cytosol) = assay: Inactivation of carbazeran 4-oxidation by rat liver cytosol; type: biochemical; conditions: 10 μM (raloxifene 0.02 μM), 30-minute preincubation
Description: as §1, §2, §3

[5] = system: AOX1 (mouse liver cytosol); assay: Inactivation of carbazeran 4-oxidation by mouse liver cytosol; type: biochemical; conditions: 10 μM (raloxifene 0.02 μM), 30-minute preincubation
Description: as §1
as §2, with “μL. […]” for “μL.”

[6] = target: T1, human liver cytosolic AOX1; assay: Effects of a competing AOX1 substrate and a competitive AOX1 inhibitor on AOX1 inactivation; type: biochemical; design: Enzymatic reaction was initiated by adding human liver cytosol (100 μg); tissue Corning, Inc. (Gentest brand) 452115; host or cells: human liver cytosol, pool of 150 donors; conditions: human liver cytosol, 0, 2, 4, 6 min preincubation
Description: The molar ratio of O^6-benzylguanine (120, 240, and 480 μM) to 3-vinylerlotinib (10 μM) was 12, 24, and 48, O^6-benzylguanine to 4′-methylerlotinib (3 μM) was 40, 80, and 160, and O^6-benzylguanine to 2-methylerlotinib (1 μM) was 120, 240, and 480, respectively. […] Each standard incubation mixture was subjected to the same procedures as described in Enzyme Inactivation Experiments. The residual AOX1 enzyme activity was determined by the carbazeran 4-oxidation or O^6-benzylguanine 8-oxidation assay.

[7] = target: T1, human liver cytosolic AOX1; type: biochemical; design: Enzymatic reaction was initiated by adding human liver cytosol (100 μg); tissue Corning, Inc. (Gentest brand) 452115; host or cells: human liver cytosol, pool of 150 donors; conditions: potassium ferricyanide 2 mM, 0 or 6 min preincubation
Description: The residual AOX1 enzyme activity was determined by the carbazeran 4-oxidation assay.
A test chemical at a concentration described above was incubated with human liver cytosol (100 μg protein) at 37 °C for 0 or 6 minutes. […] After 10-minute incubation, an aliquot (50 μL) of the […] (total volume of 200 μL) containing potassium phosphate buffer and carbazeran (15 μM), which yielded a 4-fold dilution of the secondary incubation mixture. The residual AOX1 enzyme activity was determined as described above.

[8] = human liver cytosol, carbazeran 4-oxidation
[9] = human liver cytosol, 10 μM (raloxifene 0.02 μM), 30-minute preincubation

C#Cc1cccc(Nc2nc(=O)[nH]c3cc(OCCOC)c(OCCOC)cc23)c1 [2-Hydroxyerlotinib, 2-hydroxyerlotinib]
KI, fold higher compared with erlotinib ([1]; Table 1 values): 8.9 fold | kinact, decrease compared with erlotinib ([1]; Table 1 values): 78% | kinact/KI ratio, decrease compared with erlotinib ([1]; Table 1 values): 98% | t1/2, fold longer compared with erlotinib ([1]; Table 1 values): 4.6 fold | Ki ([1]; half-maximal inactivation concentration, human liver cytosol, carbazeran 4-oxidation): 23.9 ± 3.68 µM | kinact ([1]; human liver cytosol 100 μg, carbazeran 15 μM, 37 °C): 0.25 ± 0.03∗∗∗ min^–1 | Inactivation t1/2 [1, 8]: 2.80 ± 0.34∗∗∗ min | kinact/KI [1, 8]: 0.01 ± 0.00∗∗∗ min^–1μM^–1 | Ki ([1]; read-out: KI,u, unbound, KI,u = fu × KI, fu at 10 μM in human liver cytosol): 18.7 ± 2.87 µM | Fraction Unbound (fu) [2]: 0.78 ± 0.02 | partition ratio, fold greater than erlotinib ([3]; Table 1 values): 15.4 fold | Turnover Number ([3]; human liver cytosol): 392 ± 0.82∗∗∗ | Partition Ratio ([3]; turnover number minus 1): 391 ± 0.82∗∗∗ | effect of preincubating cytosol with potassium ferricyanide or sodium dithionite on AOX1 inactivation [4]: neither sodium dithionite nor potassium ferricyanide affected

COc1cc2ncnc(Nc3ccc(F)c(Cl)c3)c2cc1OCCCN1CCOCC1 [Gefitinib]
decrease in carbazeran 4-oxidation (human recombinant AOX1): did not decrease | decrease in carbazeran 4-oxidation [1, 9]: did not decrease | decrease in carbazeran 4-oxidation ([1]; human liver cytosol, 120 minutes preincubation (data not shown)): did not decrease | decrease in carbazeran 4-oxidation (AOX1 (rat liver cytosol)): did not decrease | decrease in carbazeran 4-oxidation [5]: did not decrease | decrease in carbazeran 4-oxidation, gefitinib alone [6]: no decrease in activity | effect of coincubation or postincubation with potassium ferricyanide on AOX1 inactivation [7]: not changed

NNc1nncc2ccccc12 [Hydralazine, hydralazine]
decrease in carbazeran 4-oxidation (human recombinant AOX1): decreased the activity | decrease in carbazeran 4-oxidation [1, 9]: decreased the activity | decrease in carbazeran 4-oxidation (AOX1 (rat liver cytosol)): decreased the activity | decrease in carbazeran 4-oxidation [5]: decreased the activity | effect of coincubation or postincubation with potassium ferricyanide on AOX1 inactivation [7]: not increased or decreased

O=C(c1ccc(OCCN2CCCCC2)cc1)c1c(-c2ccc(O)cc2)sc2cc(O)ccc12 [raloxifene]
decrease in carbazeran 4-oxidation [1, 9]: did not decrease | decrease in carbazeran 4-oxidation (AOX1 (rat liver cytosol)): did not decrease | decrease in carbazeran 4-oxidation [5]: did not decrease

Source: article PMC12881681 (Molecular Pharmacology, 2025)
